Experimental findings from patent US5324648A, “Substituted isocoumarins as serine protease inhibitors and anti-inflammatory agents” (Georgia Tech Research Corporation, priority 1992, dated 1994) are described below.

The target of one data set is T1, human granzyme A (Homo sapiens, UniProt P12544).
T1 construct: human cytotoxic lymphocyte granzyme A; endogenous in cells; host or cells: human cytotoxic lymphocytes
T1 sequence (P12544 29-262): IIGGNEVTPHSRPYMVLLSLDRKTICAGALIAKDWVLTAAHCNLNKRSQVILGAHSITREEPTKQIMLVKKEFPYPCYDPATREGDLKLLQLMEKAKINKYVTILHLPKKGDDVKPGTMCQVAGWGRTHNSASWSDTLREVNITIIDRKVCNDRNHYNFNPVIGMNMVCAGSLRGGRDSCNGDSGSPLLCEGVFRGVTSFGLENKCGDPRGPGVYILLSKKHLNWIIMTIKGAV
As to the kind of experiment: Inactivation rate of human granzyme A. The data set is classed as biochemical. The conditions noted are these: Table VII; pH 7.5, 25° C; [I] 0.4 to 45 μM; read-out: kobs/[I]. The method, then:
(§1) Inactivation rates of serine proteases by substituted isocoumarins were measured by the incubation method. An aliquot of inhibitor (25 or 50 μl) in Me2 SO was added to a buffered enzyme solution (0.01-2.3 μM) to initiate the inactivation. Aliquots (50 μl) were withdrawn at various intervals and the residual enzymatic activity was measured. Me2 SO concentration in the reaction mixture was 8-12% (v/v). 0.1 Hepes, 0.01M CaCl2, pH 7.5 buffer was utilized for trypsin and coagulation enzymes. 0.1M Hepes, 0.5M NaCl, pH 7.5 was utilized for other serine proteases. The inhibitor concentrations are shown in all the tables. Peptide thioesters or peptide nitroanilides with appropriate sequence were used as substrates for various serine proteases. All peptide thioester hydrolysis rates were measured with assay mixtures containing 4,4'-dithiodipyridine (ε324 =19800M^-1 cm^-1; Grasetti & Murray, Arch. Biochem. Biophys. 119, pp 41-49 (1967)). Peptide 4-nitroanilide nitroanilide hydrolysis was measured at 410 nm (ε410 =8800M^-1 cm^-1; Erlanger et al., Arch. Biochem. Biophys. 95, pp 271-278 (1961)). First order inactivation rate constant (kobs) were obtained from plots of ln (vt /vo) vs time, and the correlation coefficients were greater than 0.98.
^a Inactivation rates were measured at 0.1M Hepes, 0.01M CaCl2,
pH 7.5, 8% Me2 SO and 25° C. by incubation method. ZArg-SBzl
(74-85 μM) was used as the substrate to monitor the residual enzymatic

The target in another data set is T2, C2a (Homo sapiens, UniProt P06681).
T2 construct: active fragments C2a, Bb
Briefly: Inactivation rate of complement fragment C2a. The data set is classed as biochemical. The following applies: Table II; pH 7.5, 25° C; [I] 0.19 to 1.25 mM; read-out: kobs/[I]. The method, then:
as §1
(§2) ^a Conditions were 0.1M Hepes, 0.5M NaCl, pH 7.5, 8-10% Me2 SO
and 25° C. Inactivation rates were measured by incubation method. […]

The next data set addresses T3, Bb (Homo sapiens, UniProt P00751).
T3 construct: active fragments C2a, Bb
Briefly: Inactivation rate of complement fragment Bb. The data set is classed as biochemical. The following applies: Table II; pH 7.5, 25° C; [I] 0.05 to 1.25 mM; read-out: kobs/[I]. Here is the method: as §1, §2
and 25° C. Inactivation rates were measured by incubation method.
Enzyme concentrations were as follows: protein D, 1-9 μM; C2, 0.7-1
μM; B, 1.8 μM; Bb, 0.3-0.8 μM; Cl^- s, 0.07 μM; Cl^-

The next data set addresses T4, human factor VIIa (Homo sapiens, UniProt P08709).
T4 construct: human factor VIIa
T4 sequence (P08709 213-466 limits assumed): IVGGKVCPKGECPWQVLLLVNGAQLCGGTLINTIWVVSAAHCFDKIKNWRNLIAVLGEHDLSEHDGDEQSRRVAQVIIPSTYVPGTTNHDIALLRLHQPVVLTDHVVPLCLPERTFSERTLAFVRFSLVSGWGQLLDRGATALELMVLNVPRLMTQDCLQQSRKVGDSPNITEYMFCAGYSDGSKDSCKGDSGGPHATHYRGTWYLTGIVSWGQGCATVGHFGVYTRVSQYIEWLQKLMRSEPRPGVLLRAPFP
T4 sequence (P08709 61-212 partner limits assumed): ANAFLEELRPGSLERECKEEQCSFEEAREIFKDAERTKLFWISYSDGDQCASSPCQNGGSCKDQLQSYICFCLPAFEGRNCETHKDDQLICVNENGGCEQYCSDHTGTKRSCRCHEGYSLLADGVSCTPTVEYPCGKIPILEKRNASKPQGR
Briefly: Inactivation rate of human factor VIIa. The data set is classed as biochemical. The following applies: Table I; pH 7.5, 25° C; [I] 5 to 44 μM; read-out: kobs/[I].

The next data set addresses T5, human thrombin (Homo sapiens, UniProt P00734).
T5 construct: human thrombin
Briefly: Inactivation rate of human thrombin. The data set is classed as biochemical. The conditions noted are these: Table VIII; pH 7.5, 25° C; [I] 1.2-54 μM; read-out: kobs/[I]. An outline of the steps:
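Incubation method: enzyme (0.01-2.3 μM) mixed with inhibitor in 0.1M Hepes, 0.01M CaCl2, pH 7.5, 8% Me2SO, 25° C; residual activity sampled over time with peptide thioester or 4-nitroanilide substrates. kobs from ln(vt/vo) vs time plots.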

Data set [1] in a line: Spontaneous hydrolysis in rabbit plasma. The data set is classed as in vitro ADME. The conditions noted are these: for half-life: rabbit plasma, read-out: t1/2 for spontaneous hydrolysis.
Data set [2] is described as follows: Activated partial thromboplastin time (APTT), rabbit plasma.
The target in the next data set is T6, human skin chymase (Homo sapiens, UniProt P23946).
T6 construct: human skin chymase; from tissue; host or cells: human skin
Briefly: Inactivation rate of human skin chymase. The data set is classed as biochemical. The following applies: Table V; pH 7.5, 25° C; [I] 0.41 to 0.53 mM; read-out: kobs/[I]. Here is the method: as §1
(§3) ^a Inactivation rates were measured at 0.1M Hepes, 0.5M NaCl, pH 7.5,
(§4) 8-12% Me2 SO and 25° C. by incubation method. An aliquot of […]

Data set [3] concerns the target T7, rat mast cell protease II (Rattus norvegicus, UniProt P00770).
T7 construct: rat mast cell protease II; from tissue; host or cells: rat mast cells (by the enzyme's name only)
Briefly: Inactivation rate of rat mast cell protease II. The data set is classed as biochemical. The following applies: Table V; pH 7.5, 25° C; [I] 0.007 to 0.013 mM; read-out: kobs/[I]. Here is the method:
as §1, §3, §4

The target in a further data set is T8, human lung chymase (Homo sapiens, UniProt P23946).
T8 construct: human lung chymase; from tissue; host or cells: human lung
Briefly: Inactivation rate of human lung chymase. The data set is classed as biochemical. The conditions noted are these: Table V; pH 7.5, 25° C; [I] 0.38 mM; read-out: kobs/[I]. The method, then:
as §1, §3, §4

For data set [4], the system named is pig plasma. Briefly: Activated partial thromboplastin time (APTT), pig plasma. The following applies: [I] 16 μM.
Data set [5] relates to pig plasma. As to the kind of experiment: Prothrombin time (PT), pig plasma.

T3 sequence (P00751 260-764 limits assumed): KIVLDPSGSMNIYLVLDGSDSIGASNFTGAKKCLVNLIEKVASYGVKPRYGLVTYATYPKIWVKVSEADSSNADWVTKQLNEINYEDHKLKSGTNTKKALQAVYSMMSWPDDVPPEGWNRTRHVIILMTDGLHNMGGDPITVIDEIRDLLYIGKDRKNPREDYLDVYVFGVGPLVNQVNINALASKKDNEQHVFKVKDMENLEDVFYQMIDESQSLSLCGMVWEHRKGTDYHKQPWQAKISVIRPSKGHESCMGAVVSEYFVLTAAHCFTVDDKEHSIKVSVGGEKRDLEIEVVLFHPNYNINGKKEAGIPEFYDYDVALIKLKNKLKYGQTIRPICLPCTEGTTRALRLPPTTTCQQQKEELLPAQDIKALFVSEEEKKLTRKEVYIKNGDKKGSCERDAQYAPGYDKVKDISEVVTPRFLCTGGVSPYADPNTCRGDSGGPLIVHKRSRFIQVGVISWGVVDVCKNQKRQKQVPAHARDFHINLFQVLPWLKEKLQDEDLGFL
T2 sequence (P06681 244-752 limits assumed): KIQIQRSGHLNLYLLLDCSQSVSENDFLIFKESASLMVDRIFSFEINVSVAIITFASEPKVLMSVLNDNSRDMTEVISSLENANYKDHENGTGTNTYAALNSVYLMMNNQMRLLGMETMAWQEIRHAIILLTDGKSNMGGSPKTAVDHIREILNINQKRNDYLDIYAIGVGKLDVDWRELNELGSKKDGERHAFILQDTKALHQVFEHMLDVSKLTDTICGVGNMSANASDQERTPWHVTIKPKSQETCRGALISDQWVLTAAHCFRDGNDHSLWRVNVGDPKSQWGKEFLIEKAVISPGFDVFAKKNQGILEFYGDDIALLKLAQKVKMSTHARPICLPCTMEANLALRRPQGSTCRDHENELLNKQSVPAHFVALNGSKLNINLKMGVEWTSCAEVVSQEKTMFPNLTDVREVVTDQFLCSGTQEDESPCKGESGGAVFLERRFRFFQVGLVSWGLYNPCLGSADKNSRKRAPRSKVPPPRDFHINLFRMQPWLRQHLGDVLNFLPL
T6 sequence (P23946 22-247): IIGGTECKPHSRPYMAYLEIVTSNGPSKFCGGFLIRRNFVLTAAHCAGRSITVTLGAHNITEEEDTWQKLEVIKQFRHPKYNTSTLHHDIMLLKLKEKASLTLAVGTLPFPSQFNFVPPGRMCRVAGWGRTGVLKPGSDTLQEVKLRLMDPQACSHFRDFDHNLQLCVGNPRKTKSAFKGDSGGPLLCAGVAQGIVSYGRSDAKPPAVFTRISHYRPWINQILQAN
T7 sequence (P00770 21-247): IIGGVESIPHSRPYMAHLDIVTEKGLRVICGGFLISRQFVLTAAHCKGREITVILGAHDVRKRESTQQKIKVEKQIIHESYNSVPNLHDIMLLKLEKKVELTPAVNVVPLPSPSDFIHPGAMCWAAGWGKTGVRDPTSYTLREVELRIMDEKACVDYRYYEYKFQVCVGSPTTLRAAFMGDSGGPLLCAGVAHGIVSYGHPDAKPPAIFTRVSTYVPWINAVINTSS
T8 sequence (P23946 22-247): as the sequence (P23946 22-247) above

Regarding `O=c1oc(Cl)c(Cl)c2ccccc12` [3,4-dichloroisocoumarin, reference compound], the kinact/KI on human granzyme A was 50 M⁻¹ s⁻¹.

Consider `N=C(N)SCCOc1oc(=O)c2ccccc2c1Cl` [3-(2-isothiureidoethoxy)-4-chloroisocoumarin], for which the values for the kinact/KI at C2a and on Bb were 1.4 M⁻¹ s⁻¹ and 15 M⁻¹ s⁻¹, respectively.

As for `NCCCOc1oc(=O)c2ccccc2c1Cl` [3-(3-aminopropoxy)-4-chloroisocoumarin], the kinact/KI at human granzyme A is 2010 M⁻¹ s⁻¹.

Regarding `N=C(N)SCCCOc1oc(=O)c2ccccc2c1Cl` [3-(3-isothiureidopropoxy)-4-chloroisocoumarin], the kinact/KI came out at 0.8 M⁻¹ s⁻¹ on C2a, 450 M⁻¹ s⁻¹ at human factor VIIa, 0.8 M⁻¹ s⁻¹ at Bb and 18400 M⁻¹ s⁻¹ on human granzyme A.

For `N=C(N)SCCCOc1oc(=O)c2cc(N)ccc2c1Cl` [7-amino-4-chloro-3-(3-isothiureidopropoxy)isocoumarin], the kinact/KI at human factor VIIa came out at 430 M⁻¹ s⁻¹; on human thrombin, 760 M⁻¹ s⁻¹; at human granzyme A, 6750 M⁻¹ s⁻¹. Besides, the “stability in rabbit plasma (in words)” value in data set [1] is given as “fairly stable”. Besides, the half-life in data set [1] was determined as 2.33 h. The APTT in [2] ([I] 33 μM) was determined as 68.6 s.

Turning to `CCOc1oc(=O)c2cc(NC(=N)N)ccc2c1Cl` [7-guanidino-3-ethoxy-4-chloroisocoumarin, 7-guanidino-4-chloro-3-ethoxyisocoumarin], the kinact/KI at human skin chymase was 33 M⁻¹ s⁻¹; at human factor VIIa it was 2200 M⁻¹ s⁻¹; on Bb, 95 M⁻¹ s⁻¹; at human granzyme A, 6850 M⁻¹ s⁻¹; in data set [3], 1100 M⁻¹ s⁻¹; at human lung chymase, 540 M⁻¹ s⁻¹. Also, the half-life in [1] came to 0.07 h. For the same compound, the APTT in [2] ([I] 31 μM) came out at 60.5 s.

On to `N=C(N)Nc1ccc2c(Cl)c(OCCc3ccccc3)oc(=O)c2c1` [7-guanidino-4-chloro-3-(2-phenylethoxy)isocoumarin], for which the kinact/KI was 22 M⁻¹ s⁻¹ at human skin chymase, 58 M⁻¹ s⁻¹ on Bb and 4100 M⁻¹ s⁻¹ in data set [3].

With `COc1oc(=O)c2cc(NC(=N)N)ccc2c1Cl` [7-guanidino-4-chloro-3-methoxyisocoumarin], the kinact/KI at Bb stood at 74 M⁻¹ s⁻¹.

Take `N=C(N)SCCOc1oc(=O)c2cc(NC(=O)Nc3ccccc3)ccc2c1Cl` [PhNHCONH-CiTEtOIC, 7-(phenylcarbamoylamino)-4-chloro-3-(2-isothiureidoethoxy)isocoumarin]: the kinact/KI at human thrombin amounted to 22400 M⁻¹ s⁻¹. Further, the APTT with pig plasma [4] is more than 120 s. Further, the PT was determined as 28.5 s with pig plasma [5] ([I] 16 μM) and 58.3 s in the data set with pig plasma [5] ([I] 32 μM).
